According to patent US20030083483A1, “Molecular interaction sites of vimentin RNA and methods of modulating the same” (priority 1999, published 2003):
“Also recorded” adds a separate entry of the source.

Tests used:
[1] = tested on: 27-mer RNA corresponding to the 16S rRNA A site containing 3 dA residues; assay: MS-MS CID/CAD protection assay on chimeric 27-mer RNA/DNA; assay type: binding, prokaryotic; conditions: same activation energy as free RNA
Excerpt: In order to study the binding of paromomycin to the RNA of Example 20, the chimeric RNA/DNA molecule of Example 20 was synthesized using standard automated nucleic acid synthesis protocols on an automated synthesizer. A sample of this nucleic acid was then subjected to ESI followed by CID in a mass spectrometer to afford the fragmentation pattern indicating a lack of structure at the sites of dA incorporation, as described in Example 20. This indicated the accessibility of these dA sites in the structure of the chimeric nucleic acid.
Next, another sample of the chimeric nucleic acid was treated with a solution of paromomycin and the resulting mixture analyzed by ESI followed by CID using a mass spectrometer. […] This was also indicative of binding of the paromomycin to the chimeric nucleic acid, because of the increased mass of the observed ion complex. Further, there was also observed, a shift in the distribution of the multiply charged ion complexes which reflected a change in the conformation of the nucleic acid in the paromomycin-nucleic acid complex into a more compact structure. […]
The mass spectrum obtained from a 5 μM solution of C mixed with 125 nM paromomycin contains [M-5H]^5− ions from free C at m/z 1783.6 and the [M-5H]^5− ions of the paromomycin-C complex at m/z 1907.3. […] Signals from the [M-4H]^4− ions of C and the complex are detected at m/z 2229.8 and 2384.4, respectively. […]

16S A-site RNA = conditions: previously reported / solution value for 16S A site; read-out: literature Kd; cited from earlier work
[2] = tested on: protein synthesis (luciferase reporter); assay: transcription/translation assay based on expression of a luciferase plasmid; assay type: biochemical; conditions: unit printed only in the Paromomycin cell and b169
Protocol: The compounds are screened for binding affinity using MASS or conventional high-throughput functional screens. The best scoring compounds from docking a 256-member library against the 16S A-site ribosomal RNA structure are shown in the table 5 below. The MASS assay was performed with the 27-mer model RNA sequence of the 16S A-site whose NMR structure has been determined. The transcription/translation assay was based on expression of a luciferase plasmid.

NC[C@@H]1O[C@H](O[C@H]2[C@@H](O)[C@H](O[C@@H]3[C@@H](O)[C@H](N)C[C@H](N)[C@H]3O[C@H]3O[C@H](CO)[C@@H](O)[C@H](O)[C@H]3N)O[C@@H]2CO)[C@H](N)[C@@H](O)[C@@H]1O [Paromomycin]
fragmentation at the dA sites of the ligand-RNA complex on CID/CAD [1]: no fragmentation at the dA sites; also recorded: No cleavage was found to occur; also recorded: No significant fragment ions are observed; also recorded: no fragment ions are detected | Kd (16S A-site RNA): 200 nM | Activity: Inhibition of protein synthesis in transcription/translation assay for luciferase reporter [2]: 0.3 µM
